Data on one compound can be found in US6353003B1, “Method for reducing levels of homocysteine and C-reactive protein” (Eli Lilly and Company, priority 1998, dated 2002).

The test system of one experiment is C-reactive protein. As to the kind of experiment: Clinical investigation: C-reactive protein levels after six months versus baseline. Format: in vivo, human. More on the design: lowered C-reactive protein: unit not given here. As to conditions: postmenopausal women, six months vs patient's baseline, NS. The protocol:
(§1) A clinical investigation was conducted which included 390 women (45-72 years old), who were an average of ten years postmenopausal. These patients were randomly assigned to the following treatment protocol: raloxifene hydrochloride at 60 mg per day via oral administration (cf. Formulation 2, supra), raloxifene at 120 mg per day, or HRT therapy. Homocysteine and C-reactive protein baseline levels were determined, prior to the initiation of therapy. Methods for such determinations are well known and can be found in the references cited, supra. The study was conducted for a period of six months. The levels of homocysteine and C-reactive protein in each patient were compared at the end of six months with that patient's baseline. Results were analyzed by variance. Raloxifene at 60 mg per day lowered levels of homocysteine by 8% (p<0.05) and C-reactive protein by 4% (NS). Raloxifene at 120 mg per day lowered homocysteine by 5.7% (p<0.05) and C-reactive protien by −3.9 (NS).

For the next experiment, the system named is homocysteine. The experiment can be described thus: Clinical investigation: homocysteine levels after six months versus baseline. Format: in vivo, human. As to conditions: postmenopausal women, six months vs patient's baseline, p<0.05. The protocol: as §1

Structures are written as SMILES.

Regarding `Cl.O=C(c1ccc(OCCN2CCCCC2)cc1)c1c(-c2ccc(O)cc2)sc2cc(O)ccc12` [Raloxifene, [2-(4-hydroxyphenyl)-6-hydroxybenzo [b]thien-3-yl][4-[2-(1-piperidinyl)ethoxy]phenyl]methanone hydrochloride], the “lowered levels of C-reactive protein” value in the experiment on C-reactive protein (60 mg per day oral) is 4%. Further, the “lowered C-reactive protein” value in the experiment on C-reactive protein (120 mg per day) is listed as −3.9. In the experiment on homocysteine (60 mg per day oral), the “lowered levels of homocysteine” value stood at 8%. This compound also gave a lowered homocysteine in the experiment on homocysteine (120 mg per day) of 5.7%.
